Measured values published in ChEMBL document CHEMBL1154913, “Sesquiterpene lactones from Anthemis melanolepis and their antibacterial and cytotoxic activities. Prediction of their pharmacokinetic profile” (2010).
Values after ≈ are worked out from the molar mass of the structure shown. Active and inactive are the calls of the source. The calls are words filed in the database; no cut-off is given here.

Key:
Candida albicans = assay: Antifungal activity against Candida albicans clinical isolate after 48 hrs by serial dilution technique; format: functional
Micrococcus luteus [1] = assay: Antibacterial activity against Micrococcus luteus clinical isolate after 48 hrs by serial dilution technique; format: functional
Pseudomonas tolaasii = assay: Antibacterial activity against Pseudomonas tolaasii after 48 hrs by serial dilution technique; format: functional
Salmonella enterica = assay: Antibacterial activity against Salmonella enteritidis ATCC 13076 after 48 hrs by serial dilution technique; format: functional, Salmonella enterica subsp. enterica serovar Enteritidis; conditions: ATCC 13076, 48 h
Micrococcus luteus [2] = assay: Antibacterial activity against Sarcina lutea ATCC 9341 after 48 hrs by serial dilution technique; format: functional; conditions: ATCC 9341, 48 h
MCF7 [3] = assay: Cytotoxicity against human MCF7 cells after 48 hrs by SRB assay; format: functional; conditions: MCF7, 48 h
Bacillus cereus = assay: Antibacterial activity against Bacillus cereus clinical isolate after 48 hrs by serial dilution technique; format: functional
Proteus mirabilis = assay: Antibacterial activity against Proteus mirabilis clinical isolate after 48 hrs by serial dilution technique; format: functional, organism-based
SF-268 [4] = assay: Cytotoxicity against human SF268 cells after 48 hrs by SRB assay; format: functional; conditions: SF-268, 48 h
NCI-H460 [5] = assay: Cytotoxicity against human H460 cells after 48 hrs by SRB assay; format: functional; conditions: NCI-H460, 48 h
Pseudomonas aeruginosa = assay: Antibacterial activity against Pseudomonas aeruginosa clinical isolate after 48 hrs by serial dilution technique; format: functional
[6] = system: Agrobacterium tumefaciens; assay: Antibacterial activity against Agrobacterium tumefaciens A 281 after 48 hrs by serial dilution technique; format: functional; conditions: A 281, 48 h
Staphylococcus aureus = assay: Antibacterial activity against Staphylococcus aureus ATCC 6538 after 48 hrs by serial dilution technique; format: functional; conditions: ATCC 6538, 48 h
SF-268 [7] = assay: Cytotoxicity against human SF268 at 100 uM cells after 48 hrs by SRB assay; format: functional, cell-based
NCI-H460 [8] = assay: Cytotoxicity against human H460 cells at 100 uM after 48 hrs by SRB assay; format: functional, cell-based
Escherichia coli = assay: Antibacterial activity against Escherichia coli ATCC 35218 after 48 hrs by serial dilution technique; format: functional; conditions: ATCC 35218, 48 h
MCF7 [9] = assay: Cytotoxicity against human MCF7 cells at 100 uM after 48 hrs by SRB assay; format: functional, cell-based

SMILES	MIC (Candida albicans) [µg/mL]	MIC (Micrococcus luteus [1]) [µg/mL]	MIC (Pseudomonas tolaasii) [µg/mL]	MIC (Salmonella enterica) [µg/mL]	MIC (Micrococcus luteus [2]) [µg/mL]	MIC (Bacillus cereus) [µg/mL]	MIC (Proteus mirabilis)	GI50 (SF-268 [4]) [µM]	MIC (Pseudomonas aeruginosa) [µg/mL]	MIC [6] [µg/mL]	MIC (Staphylococcus aureus) [µg/mL]	LC50 (SF-268 [7])	LC50 (NCI-H460 [8])	TGI (NCI-H460 [8])	MIC (Escherichia coli) [µg/mL]	further results
C=C1C(=O)O[C@H]2C[C@@]3(C)[C@H](O)CCC(=C)[C@@H]3[C@@H](O)[C@H]12	25 (≈ 94.6 µM)	6.25 (≈ 23.6 µM)	25 (≈ 94.6 µM)	25 (≈ 94.6 µM)	6.25 (≈ 23.6 µM)	6.25 (≈ 23.6 µM)	inactive	42.7	25 (≈ 94.6 µM)	25 (≈ 94.6 µM)	0.625 (≈ 2.36 µM)	inactive	inactive	inactive	25 (≈ 94.6 µM)	GI50 (MCF7 [3]): 52.3 µM; LC50 (MCF7 [3]): 85.8 µM; TGI (MCF7 [3]): 64.2 µM; GI50 (NCI-H460 [5]): 69 µM; TGI (SF-268 [7]): inactive
C=C1C(=O)O[C@H]2C[C@@]3(C)[C@H](O)CC[C@@](C)(O)[C@@H]3[C@@H](O)[C@H]12	–	12.5 (≈ 44.3 µM)	25 (≈ 88.5 µM)	25 (≈ 88.5 µM)	6.25 (≈ 22.1 µM)	12.5 (≈ 44.3 µM)	inactive	40.3	50 (≈ 177 µM)	25 (≈ 88.5 µM)	1.25 (≈ 4.43 µM)	inactive	inactive	inactive	25 (≈ 88.5 µM)	GI50 (MCF7 [9]): inactive; LC50 (MCF7 [9]): inactive; TGI (MCF7 [9]): inactive; TGI (SF-268 [7]): inactive; GI50 (NCI-H460 [8]): inactive
C=C1C[C@@H]2OC(=O)C(=C)[C@H]2[C@@H](O)/C=C(\C)CCC1=O [ANTHEMIN C]	–	12.5 (≈ 47.7 µM)	–	–	25 (≈ 95.3 µM)	12.5 (≈ 47.7 µM)	inactive	–	–	–	1.25 (≈ 4.77 µM)	–	–	–	–	–
C=C1C(=O)O[C@H]2/C=C(\C)[C@@H](O)CC[C@@]3(C)O[C@@H]3[C@H](O)[C@H]12	–	12.5 (≈ 44.6 µM)	25 (≈ 89.2 µM)	25 (≈ 89.2 µM)	6.25 (≈ 22.3 µM)	12.5 (≈ 44.6 µM)	inactive	–	50 (≈ 178 µM)	25 (≈ 89.2 µM)	1.25 (≈ 4.46 µM)	–	–	–	25 (≈ 89.2 µM)	–
CC[C@]1(O)C[C@@H]2CN(CCc3c([nH]c4ccccc34)[C@@](C(=O)OC)(c3cc4c(cc3OC)N(C)[C@H]3[C@@](O)(C(=O)OC)[C@H](OC(C)=O)[C@]5(CC)C=CCN6CC[C@]43[C@@H]65)C2)C1 [VINBLASTINE]	–	–	–	–	–	–	–	< 0.01	–	–	–	–	–	–	–	GI50 (MCF7 [3]): < 0.01 µM; TGI (MCF7 [3]): 1.6 µM; TGI (SF-268 [4]): 1.64 µM; CC50 (SF-268 [4]; read-out: LC50 (the source's name)): 2.48 µM; GI50 (NCI-H460 [5]): < 0.01 µM; TGI (NCI-H460 [5]): 0.35 µM
C=C1C(=O)O[C@H]2C[C@@]3(C)[C@H](C(=C)CC[C@@H]3O)[C@@H](O)[C@H]12 [ELEGALACTONE A]	–	50 (≈ 189 µM)	–	–	–	–	inactive	76	–	–	50 (≈ 189 µM)	inactive	inactive	inactive	–	GI50 (MCF7 [9]): inactive; LC50 (MCF7 [9]): inactive; TGI (MCF7 [9]): inactive; TGI (SF-268 [7]): inactive; GI50 (NCI-H460 [8]): inactive
CN[C@@H]1[C@H](O[C@H]2[C@H](O[C@H]3[C@H](O)[C@@H](O)[C@H](N=C(N)N)[C@@H](O)[C@@H]3N=C(N)N)O[C@@H](C)[C@]2(O)C=O)O[C@@H](CO)[C@H](O)[C@H]1O [STREPTOMYCIN]	–	50 (≈ 86 µM)	200 (≈ 344 µM)	200 (≈ 344 µM)	50 (≈ 86 µM)	50 (≈ 86 µM)	inactive	–	–	100 (≈ 172 µM)	–	–	–	–	100 (≈ 172 µM)	–
C=C1C(=O)O[C@H]2C[C@]3(C)[C@H](O)CCC(=C)[C@@H]3[C@@H](O)[C@H]12 [ANTHEMIN B]	–	–	–	–	–	–	–	52.3	–	–	–	inactive	inactive	inactive	–	TGI (SF-268 [4]): 80.3 µM; GI50 (MCF7 [9]): inactive; LC50 (MCF7 [9]): inactive; TGI (MCF7 [9]): inactive; GI50 (NCI-H460 [8]): inactive
C=C1C(=O)O[C@H]2CC(=C)[C@@H](O)CC/C(C)=C/[C@@H](O)[C@H]12 [TATRIDIN B]	25 (≈ 94.6 µM)	6.25 (≈ 23.6 µM)	25 (≈ 94.6 µM)	25 (≈ 94.6 µM)	6.25 (≈ 23.6 µM)	6.25 (≈ 23.6 µM)	inactive	–	25 (≈ 94.6 µM)	25 (≈ 94.6 µM)	0.625 (≈ 2.36 µM)	–	–	–	25 (≈ 94.6 µM)	–
C=C1C(=O)O[C@H]2/C=C(\C)[C@@H](O)CC/C(C)=C/[C@@H](O)[C@H]12 [TATRIDIN A]	25 (≈ 94.6 µM)	6.25 (≈ 23.6 µM)	25 (≈ 94.6 µM)	25 (≈ 94.6 µM)	6.25 (≈ 23.6 µM)	6.25 (≈ 23.6 µM)	inactive	–	25 (≈ 94.6 µM)	25 (≈ 94.6 µM)	0.625 (≈ 2.36 µM)	–	–	–	25 (≈ 94.6 µM)	–
c1ccc(-c2ccc(C(c3ccccc3)n3ccnc3)cc2)cc1 (centres undefined) [BIFONAZOLE]	200 (≈ 644 µM)	–	–	–	–	–	inactive	–	–	–	–	–	–	–	–	–
